Test results taken from PubChem BioAssay (NCI).
Values joined by “and” are separate entries in the source; they are usually repeats but may differ in a detail not shown here. Equal entries are not always repeated.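 Tested at 5 concentrations; 48 h exposure; 96-well plates; endpoints linearly interpolated, else capped at highest concentration. Abbreviation: GI50, concentration required for 50% inhibition of growth. TGI: total growth inhibition.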

Key:
Assay in all cases: inhibition of tumour cell growth, NCI panel, 48 h
DU-145 prostate = tested on: DU-145 prostate
DMS 273 small cell lung = tested on: DMS 273 small cell lung
KM20L2 colon = tested on: KM20L2 colon
LXFL 529 NSCLC = tested on: LXFL 529 NSCLC
M19-MEL melanoma = tested on: M19-MEL melanoma
XF 498 CNS = tested on: XF 498 CNS
MDA-N = tested on: MDA-N
RXF-631 renal = tested on: RXF-631 renal

Molecule `Cc1cc(N2CCSCC2)nc(NC2CCCC(Nc3ccnc4cc(Cl)ccc34)C2)n1` (stereo not drawn) has a GI50 (DU-145 prostate) of 3.13 µM and a TGI (DU-145 prostate) of 12.5 µM.

Work on `O=c1[nH]c2cc(Cl)ccc2nc1/C(=N\O)C(O)c1ccc([N+](=O)[O-])cc1` (stereo not drawn) yielded a TGI (DMS 273 small cell lung) greater than 100 µM, a TGI (KM20L2 colon) greater than 100 µM and a TGI (LXFL 529 NSCLC) greater than 100 µM. It also gave a TGI (M19-MEL melanoma) greater than 100 µM and a TGI (XF 498 CNS) greater than 100 µM.

`COc1cccc(C2c3cc4c(cc3OC(N3CCCC3)C2C)OCO4)c1O` (stereo not drawn) gave a TGI (DU-145 prostate) greater than 36.9 µM and a TGI (MDA-N) of 4.38 µM.

`COc1cc(CNC2c3cc4c(cc3C(c3cc(OC)c(OC)c(OC)c3)[C@H]3C(=O)OCC23)OCO4)cc(OC)c1OC` (stereo partly drawn) showed a TGI (KM20L2 colon) of 0.359 µM, a TGI (LXFL 529 NSCLC) greater than 100 µM and a TGI (M19-MEL melanoma) greater than 100 µM. It also gave a TGI (XF 498 CNS) of 8.07 µM.

`C[N+](C)(C)CC(=O)N/N=C(\C(=O)NC1=C(Cl)C(=O)c2ccccc2C1=O)C(C#N)c1csc(-c2ccc([N+](=O)[O-])cc2)n1` (stereo not drawn) showed a TGI (DMS 273 small cell lung) greater than 100 µM, a TGI (KM20L2 colon) greater than 100 µM and a TGI (LXFL 529 NSCLC) greater than 100 µM. For the same molecule, the TGI (M19-MEL melanoma) was greater than 100 µM, the TGI (RXF-631 renal) was greater than 100 µM and the TGI (XF 498 CNS) was greater than 100 µM.

With `CN(C)c1nc(=Nc2cccc(Cl)c2)ss1` the TGI (DMS 273 small cell lung) was 29.9 µM, the TGI (KM20L2 colon) was 35.5 µM and the TGI (LXFL 529 NSCLC) was 21.7 µM. It also gave a TGI (M19-MEL melanoma) of 32.6 µM, a TGI (RXF-631 renal) of 26.8 µM and a TGI (XF 498 CNS) of 32.4 µM.

`CCN(CC)CCCNC(=O)c1c2c(n3ccccc13)C(=O)c1ncccc1C2=O` showed a GI50 (DU-145 prostate) of 1.23 µM and a TGI (DU-145 prostate) of 2.56 µM.

`CCOC(=N)/C(=C1\OC(N)=C(c2ccc(Cl)cc2)C1=O)c1ccc(Cl)cc1` showed a TGI (DMS 273 small cell lung) of 34.4 µM, a TGI (KM20L2 colon) of 37.1 µM and a TGI (LXFL 529 NSCLC) of 27.8 µM. It also gave a TGI (M19-MEL melanoma) of 34.7 µM, a TGI (RXF-631 renal) of 80.4 µM and a TGI (XF 498 CNS) of 23.6 µM.

With `O=C1/C(=C\c2ccccn2)c2ccccc2N1c1c(Cl)cccc1Cl` the GI50 (DU-145 prostate) was 1.94 µM and the TGI (DU-145 prostate) was 3.95 µM.

`O=c1c(Cl)c(Cl)c(=O)c2sc3cc(Cl)ccc3[nH]c1=2` was tested, and the TGI (DU-145 prostate) was greater than 100 µM.

`CC1(CCC(=O)OC2CCCCC2)OCCO1` was tested, and the TGI (DU-145 prostate) was greater than 100 µM and the TGI (MDA-N) was greater than 100 µM.

Molecule `CC(C)(C)[Si](C)(C)OC1[C@@H](O[Si](C)(C)C(C)(C)C)[C@@H](CNC(=O)NC(=O)CCl)O[C@H]1n1cnc2c(NC(=O)Nc3ccccc3)ncnc21` (stereo partly drawn) has a GI50 (DU-145 prostate) of 1.73 µM and a TGI (DU-145 prostate) of 5.32 µM.

In the case of `C=C1CCC2C(C)(COC(=O)CC)C(OC(=O)CC)CCC2(C)C1C/C=C1/C(=O)OCC1OC(=O)CC` (stereo not drawn), the GI50 (DU-145 prostate) is reported as 1.82 µM and the TGI (DU-145 prostate) is reported as 3.25 µM.

For `O=Cc1ccc(-c2ccc(-c3nc4ccccc4o3)cc2)o1`, the GI50 (DU-145 prostate) was 50.1 µM and the TGI (DU-145 prostate) was greater than 100 µM.

`O=S1Nc2c(Cl)cc(Cl)c3c(Cl)cc(Cl)c(c23)N1` gave a TGI (DMS 273 small cell lung) greater than 100 µM, a TGI (KM20L2 colon) greater than 100 µM and a TGI (LXFL 529 NSCLC) greater than 100 µM. For the same molecule, the TGI (M19-MEL melanoma) was greater than 100 µM and the TGI (RXF-631 renal) was greater than 100 µM.

`Cc1cc(CC(C)CC(C)(C)C)n(O)c(=O)c1` (stereo not drawn) (tested in a mixture with another compound) gave a GI50 (DU-145 prostate) of 0.505 µM and a TGI (DU-145 prostate) greater than 41.3 µM.

`CN(Cc1cc(Cl)cc(Cl)c1)CC(C(=O)c1ccccc1)c1ccccc1` (stereo not drawn) showed a TGI (DU-145 prostate) of 20.9 µM.

With `Cc1nc(N2CCC3(CC2)CO[C@@H](C)[C@H]3N)c(CO)nc1Sc1ccnc(N)c1Cl` the GI50 (DU-145 prostate) was 45.3 µM and the TGI (DU-145 prostate) was greater than 100 µM.

Work on `CNC(=O)Cc1nc(-c2cccc(NS(=O)(=O)c3c(F)cccc3F)c2F)c(-c2ccnc(Nc3ccccc3)n2)s1` yielded a GI50 (DU-145 prostate) of 12.6 µM and a TGI (DU-145 prostate) greater than 50 µM.

`CC1=NN(C(=O)c2ccc([N+](=O)[O-])cc2)C(=O)C1N=Nc1ccccc1C(=O)O` (stereo not drawn) showed a TGI (DMS 273 small cell lung) greater than 100 µM, a TGI (LXFL 529 NSCLC) greater than 100 µM and a TGI (M19-MEL melanoma) greater than 100 µM.

`COc1ccc(-c2c3c(n(C4OC(COC(C)=O)C(OC(C)=O)C(OC(C)=O)C4OC(C)=O)c(=S)c2C#N)CC(C)(C)CC3=O)cc1` (stereo not drawn) was tested, and the GI50 (DU-145 prostate) was 46.8 µM and > 100 µM, the TGI (DU-145 prostate) was greater than 100 µM and the TGI (MDA-N) was greater than 100 µM.

Work on `COc1cccc(/C=C/C(=O)c2ccc(Cl)cc2Cl)c1` yielded a GI50 (DU-145 prostate) of 9.42 µM and a TGI (DU-145 prostate) of 17.3 µM.

With `OCC(O)c1nc2ccc3[nH]ncc3c2c2c1CCCC2` (stereo not drawn) the GI50 (DU-145 prostate) was 1.59 µM and the TGI (DU-145 prostate) was greater than 50 µM.

Work on `COc1ccc(C(=O)c2cc3c(N)c(C(=O)Nc4ccc(C)cc4)sc3nc2C)cc1` yielded a GI50 (DU-145 prostate) of 3.63 µM and a TGI (DU-145 prostate) of 27.4 µM.

`COc1cc(Nc2nc3ccccc3cc2C(=O)Nc2ccc(F)c(F)c2)cc(OC)c1OC` was tested, and the GI50 (DU-145 prostate) was 4.25 µM and the TGI (DU-145 prostate) was greater than 100 µM.

`COC1=CC(=O)C2C(C1=O)C(c1ccccc1)[C@H]2C` (stereo partly drawn) showed a TGI (DMS 273 small cell lung) greater than 100 µM, a TGI (LXFL 529 NSCLC) greater than 100 µM and a TGI (XF 498 CNS) of 49.1 µM.

Work on `CN1C(=O)N[C@H]2[C@@H]3NC(=O)c4ccc(Br)n4[C@@H]3C[C@]21O` yielded a GI50 (DU-145 prostate) of 0.121 µM and a TGI (DU-145 prostate) of 2.8 µM.

For `C/C=C/CC(C)[C@@H](O)[C@H](NC)C(=O)O` (stereo partly drawn), the TGI (DMS 273 small cell lung) was greater than 100 µM, the TGI (KM20L2 colon) was greater than 100 µM and the TGI (LXFL 529 NSCLC) was greater than 100 µM. The TGI (M19-MEL melanoma) was greater than 100 µM.

`CC(C)(C)CC(C)(C)NCc1cc(C(C)(C)C)cc(CNC(C)(C)CC(C)(C)C)c1O` showed a GI50 (DU-145 prostate) of 6.07 µM and a TGI (DU-145 prostate) of 18.5 µM.

Molecule `COC(=O)C1[C@H](c2cc(OC)c(OC)c(OC)c2)OC(=O)C1(C(=O)OC)C(=O)c1ccc2c(c1)OCO2` (stereo partly drawn) has a TGI (DMS 273 small cell lung) greater than 100 µM, a TGI (KM20L2 colon) greater than 100 µM and a TGI (LXFL 529 NSCLC) greater than 100 µM. It also gave a TGI (M19-MEL melanoma) greater than 100 µM and a TGI (XF 498 CNS) greater than 100 µM.

Molecule `CCCN(CCCC(NC(C)=O)C(=O)NCc1ccccc1)C(=O)NCCCl` (stereo not drawn) has a TGI (DMS 273 small cell lung) greater than 100 µM, a TGI (KM20L2 colon) greater than 100 µM and a TGI (LXFL 529 NSCLC) greater than 100 µM. For the same molecule, the TGI (M19-MEL melanoma) was greater than 100 µM, the TGI (RXF-631 renal) was greater than 100 µM and the TGI (XF 498 CNS) was greater than 100 µM.

`CC(=O)OC1CC2C(C)(C)C(=O)C=C[C@]2(C)C2CCC3(C)C(=CC(=O)C3c3ccoc3)[C@]12C` (stereo partly drawn) gave a TGI (KM20L2 colon) of 28.2 µM, a TGI (LXFL 529 NSCLC) of 74.2 µM and a TGI (M19-MEL melanoma) of 33.5 µM. It also gave a TGI (XF 498 CNS) of 42.8 µM.

Molecule `COC(=O)Cc1ccc(Oc2cnc3cc(F)c(F)cc3n2)cc1` has a GI50 (DU-145 prostate) greater than 100 µM and a TGI (DU-145 prostate) greater than 100 µM.

`CCN(CC)CCCC(C)N=C(C1=C(C(=NC(C)CCCN(CC)CC)c2cccc(OC)c2)C(=O)NC1=O)c1cccc(OC)c1` (stereo not drawn) showed a GI50 (DU-145 prostate) of 1.54 µM and a TGI (DU-145 prostate) of 5.03 µM.

Work on `N#CCN/C=C\C(=O)c1ccc(Cl)cc1` yielded a GI50 (DU-145 prostate) of 41.4 µM and a TGI (DU-145 prostate) greater than 100 µM.

`Cc1cc(N(CCC#N)S(C)(=O)=O)ccc1C=Nc1ccc(C(=O)NN2C(=O)/C(=C/c3ccc(N(CCC#N)CCC#N)cc3C)N=C2c2cc([N+](=O)[O-])ccc2Cl)cc1` was tested, and the TGI (DMS 273 small cell lung) was greater than 100 µM, the TGI (KM20L2 colon) was greater than 100 µM and the TGI (LXFL 529 NSCLC) was greater than 100 µM. It also gave a TGI (M19-MEL melanoma) greater than 100 µM, a TGI (RXF-631 renal) greater than 100 µM and a TGI (XF 498 CNS) greater than 100 µM.

Molecule `O=[N+]([O-])CCc1cccc([N+](=O)[O-])c1` has a TGI (DMS 273 small cell lung) greater than 100 µM, a TGI (KM20L2 colon) greater than 100 µM and a TGI (LXFL 529 NSCLC) greater than 100 µM. The TGI (M19-MEL melanoma) was greater than 100 µM.

`COC(=O)C(Cc1nc2ccccc2[nH]c1=O)C(=O)C(=O)Nc1ccc([N+](=O)[O-])cc1[N+](=O)[O-]` (stereo not drawn) showed a TGI (DMS 273 small cell lung) of 47.5 µM, a TGI (KM20L2 colon) of 38.3 µM and a TGI (LXFL 529 NSCLC) of 25.5 µM. The TGI (M19-MEL melanoma) was 33.9 µM, the TGI (RXF-631 renal) was 73.1 µM and the TGI (XF 498 CNS) was 34.6 µM.

For `CCOC(=N)CC(=O)c1ccccc1`, the TGI (DMS 273 small cell lung) was greater than 100 µM, the TGI (KM20L2 colon) was greater than 100 µM and the TGI (LXFL 529 NSCLC) was greater than 100 µM. For the same molecule, the TGI (M19-MEL melanoma) was greater than 100 µM and the TGI (XF 498 CNS) was greater than 100 µM.
